In ChEMBL document CHEMBL6177944, “Derivatization of ophiobolin A and cytotoxicity toward breast and glioblastoma cancer stem cells: Varying the ketone and unsaturated aldehyde moieties” (Bioorg Med Chem Lett, 2025):
Activity calls are given as the source filed them. The rule behind the calls is not given here.

Assays:
[1] = Selectivity index, ratio of IC50 for cytotoxicity against human T98G cells to IC50 for cytotoxicity against human GBM43 cells; type: functional
[2] = (§1) Cytotoxicity against HMLE cells expressing Twist EMT+; type: functional, cell-based; conditions: Homo sapiens
[3] = tested on: T98G; assay: Cytotoxicity against human T98G cells; type: functional, cell-based
[4] = tested on: MCF7; assay: Cytotoxicity against human MCF7 cells; type: functional, cell-based
[5] = Cytotoxicity against HMLE cells; type: toxicity, cell-based; conditions: human
[6] = Cytotoxicity against human GBM43 cells; type: functional, cell-based; conditions: GBM43 cell
[7] = Selectivity index, ratio of IC50 for cytotoxicity against HMLE cells to IC50 for cytotoxicity against human HMLE cells expressing Twist EMT+; type: toxicity, cell-based; conditions: HMLE cells and HMLE cells expressing Twist (EMT+), read-out: Ratio IC50
[8] = Selectivity index, ratio of IC50 for cytotoxicity against human MCF7 cells to IC50 for cytotoxicity against human MDA-MB-231 cells; type: cell-based
[9] = tested on: MDA-MB-231; assay: Cytotoxicity against human MDA-MB-231 cells; type: functional, cell-based
[10] = tested on: HMLE; assay: as §1; type: functional, cell-based; conditions: Homo sapiens
[11] = Cytotoxicity against HMLE cells assessed as reduction in cell viability at 1 uM relative to control; type: toxicity, cell-based; conditions: human

SMILES: CC(C)=C[C@H]1C[C@H](C)[C@]2(CC[C@]3(C)C[C@H]4[C@H]5[C@@H](CC[C@H]32)[C@H](O)O[C@H]5C[C@@]4(C)O)O1
- Ratio IC50 [1]: ~1.2
- IC50 [2]: 123 µM
- IC50 [3]: 444 µM
- IC50 [4]: 149 µM
- IC50 [5]: 58.1 µM
- IC50 [6]: 363 µM
- selectivity ratio [7]: ~0.47
- Ratio IC50 [8]: ~ 1.1
- IC50 [9]: 136 µM

SMILES: CC(C)=C[C@H]1C[C@H](C)[C@]2(CC[C@]3(C)C[C@H]4[C@H]5/C(=C\C[C@H]32)C(=O)O[C@H]5C[C@@]4(C)O)O1 [OPHIOBOLIN A LACTONE]
- Ratio IC50 [1]: ~12
- IC50 [2]: 63.6 µM
- IC50 [3]: 102 µM
- IC50 [4]: 232 µM
- IC50 [5]: 91 µM
- IC50 [6]: 8.6 µM
- selectivity ratio [7]: ~1.4
- Ratio IC50 [8]: ~ 0.74
- IC50 [9]: 313 µM

SMILES: CC(C)=C[C@H]1C[C@H](C)[C@]2(CC[C@]3(C)C[C@H]4[C@H]5/C(=C\C[C@H]32)CO[C@@]5(O)C[C@@]4(C)O)O1
- IC50 [2]: 8.84 µM
- IC50 [4]: 107 µM
- IC50 [5]: 25.9 µM
- selectivity ratio [7]: ~2.9
- Ratio IC50 [8]: ~ 0.84
- IC50 [9]: 128 µM

SMILES: CC(C)=C[C@H]1C[C@H](C)[C@]2(CC[C@]3(C)C[C@H]4[C@H]5/C(=C\C[C@H]32)C(O)O[C@H]5C[C@@]4(C)O)O1 (stereo partly specified)
- IC50 [2]: 22.5 µM
- IC50 [4]: 39.6 µM
- IC50 [5]: 50.2 µM
- selectivity ratio [7]: ~2.2
- Ratio IC50 [8]: ~ 0.25
- IC50 [9]: 157 µM

SMILES: CC(C)=C[C@H]1C[C@H](C)[C@]2(CC[C@]3(C)C[C@@H]4C(C)=CC(=O)[C@@H]4/C(CO)=C\C[C@H]32)O1
- Ratio IC50 [1]: ~12
- IC50 [3]: 298 µM
- IC50 [6]: 24 µM

SMILES: COc1cccc2c1C(=O)c1c(O)c3c(c(O)c1C2=O)C[C@@](O)(C(=O)CO)C[C@@H]3O[C@H]1C[C@H](N)[C@H](O)[C@H](C)O1 [DOXORUBICIN]
- Activity [10]: inactive
- Activity [11]: < 50%

SMILES: CC(C)=C[C@H]1C[C@H](C)[C@]2(CC[C@]3(C)C[C@H]4[C@@H](/C(CO)=C\C[C@H]32)[C@@H](O)C[C@@]4(C)O)O1
- IC50 [2]: 134 µM
- IC50 [3]: > 1000 µM
- IC50 [4]: 387 µM
- IC50 [5]: 140 µM
- IC50 [6]: > 1000 µM
- selectivity ratio [7]: ~1
- Ratio IC50 [8]: ~ 1
- IC50 [9]: 384 µM

SMILES: CC1(C)CC/C=C(/C=O)[C@H]2C(=O)C[C@@](C)(O)[C@H]2C1
- Ratio IC50 [1]: ~8
- IC50 [3]: 859 µM
- IC50 [6]: 106 µM

SMILES: CC(C)=C[C@H]1C[C@H](C)[C@]2(CC[C@]3(C)C[C@H]4[C@H](C(=O)C[C@@]4(C)O)/C(C=O)=C\C[C@H]32)O1 [OPHIOBOLIN A]
- Ratio IC50 [1]: ~9
- IC50 [2]: 0.029 µM
- IC50 [3]: 1.9 µM
- IC50 [5]: 0.063 µM
- selectivity ratio [7]: ~2.1
